Experimental data: patent US4084951A, “Silicon compounds containing nucleofugal phosphate group and method of regulating plant growth therewith” (priority 1971, dated 1978)

Key:
[1] = Half lives of various silanes in 0.1M aqueous phosphate buffers at pH 7 and 25°; format: physicochemical; details: 0.1M aqueous phosphate buffer, pH 7, 25°
Experimental: Half lives of various silanes in 0.1M aqueous
phosphate buffers at pH 7 and 25°.

[2] = test system: Hevea brasiliensis seedlings; assay: Average rubber yield of seedlings treated with silane, neat liquid or 12% solution in petroleum jelly; format: in vivo
Experimental: Three Hevea brasiliensis seedlings were treated with 2-chloroethyltrimethoxysilane (2 μ1) applied as a neat liquid. Three similar seedlings were treated with the same weight of compound applied as a 12% solution in petroleum jelly. The following average yields of rubber were obtained (yield in mg of dry rubber, expressed as a percentage of pretreatment yields in parentheses).

[3] = test system: Hevea brasiliensis trees (Clone Tjirandji 1); assay: Yield of dried rubber from trees treated on scraped bark below the tapping cut; format: in vivo; details: 20% w/w in palm oil, alternate-day half-spiral tapping, mean over two weeks
Experimental: A solution of 20% w/w of diphenyl 2-(trimethylsilyl)ethylphosphate in palm oil was applied to 11/2 inch wide strip of scraped bark just below the tapping cut of Hevea brasiliensis trees (Clone Tjirandji 1). The trees were tapped on alternate days using a half-spiral tapping cut. The yield of dried rubber obtained over a four-week period was measured. The mean yields over two weeks, expressed as grams of dry rubber per tree per tapping was 45.5 (194% of control).

[4] = 12% solution in petroleum jelly, 3 days after treatment
[5] = 12% solution in petroleum jelly, 7 days after treatment
[6] = 12% solution in petroleum jelly, 12 days after treatment
[7] = 12% solution in petroleum jelly, 16 days after treatment
[8] = 12% solution in petroleum jelly, 24 days after treatment
[9] = 12% solution in petroleum jelly, 30 days after treatment
[10] = 12% solution in petroleum jelly, 34 days after treatment
[11] = 12% solution in petroleum jelly, 42 days after treatment
[12] = neat liquid (2 μl), 3 days after treatment
[13] = neat liquid (2 μl), 7 days after treatment
[14] = neat liquid (2 μl), 12 days after treatment
[15] = neat liquid (2 μl), 16 days after treatment
[16] = neat liquid (2 μl), 24 days after treatment
[17] = neat liquid (2 μl), 30 days after treatment
[18] = neat liquid (2 μl), 34 days after treatment
[19] = neat liquid (2 μl), 42 days after treatment

## CC(C)O[Si](CCCl)(OC(C)C)OC(C)C [2-chloroethyltriisopropoxysilane]
[1]
  half-life: 504 h

## CO[Si](CCCl)(OC)OC [2-chloroethyltrimethoxysilane]
[1]
  half-life: 0.333 h
[2]; [4]
  average yield of dry rubber: 2.2 mg
  yield as a percentage of pretreatment yields: 160%
[2]; [5]
  average yield of dry rubber: 2.3 mg
  yield as a percentage of pretreatment yields: 164%
[2]; [6]
  average yield of dry rubber: 2.3 mg
  yield as a percentage of pretreatment yields: 164%
[2]; [7]
  average yield of dry rubber: 3.0 mg
  yield as a percentage of pretreatment yields: 215%
[2]; [8]
  average yield of dry rubber: 2.2 mg
  yield as a percentage of pretreatment yields: 160%
[2]; [9]
  average yield of dry rubber: 2.3 mg
  yield as a percentage of pretreatment yields: 164%
[2]; [10]
  average yield of dry rubber: 1.8 mg
  yield as a percentage of pretreatment yields: 128%
[2]; [11]
  average yield of dry rubber: 0.9 mg
  yield as a percentage of pretreatment yields: 65%
[2]; [12]
  average yield of dry rubber: 2.1 mg
  yield as a percentage of pretreatment yields: 230%
[2]; [13]
  average yield of dry rubber: 2.2 mg
  yield as a percentage of pretreatment yields: 245%
[2]; [14]
  average yield of dry rubber: 1.3 mg
  yield as a percentage of pretreatment yields: 145%
[2]; [15]
  average yield of dry rubber: 1.1 mg
  yield as a percentage of pretreatment yields: 122%
[2]; [16]
  average yield of dry rubber: 0.9 mg
  yield as a percentage of pretreatment yields: 100%
[2]; [17]
  average yield of dry rubber: 0.8 mg
  yield as a percentage of pretreatment yields: 90%
[2]; [18]
  average yield of dry rubber: 1.2 mg
  yield as a percentage of pretreatment yields: 134%
[2]; [19]
  average yield of dry rubber: 1.0 mg
  yield as a percentage of pretreatment yields: 112%

## C[Si](C)(C)CCCl [2-chloroethyltrimethylsilane]
[1]
  half-life: < 0.0167 h

## C[Si](C)(C)CCOP(=O)(Oc1ccccc1)Oc1ccccc1 [diphenyl 2-(trimethylsilyl)-ethyl phosphate]
[3]
  mean yield of dry rubber per tree per tapping: 45.5 grams of dry rubber per tree per tapping
  mean yield relative to control: 194 % of control

## CC[S+](C)CC[Si](OC)(OC)OC.[I-] (centres unmarked) [ethyl methyl 2-(trimethoxysilyl)-ethyl sulphonium iodide]
[1]
  half-life: 14 h
